Experimental data taken from the NIST ThermoML archive (doi:10.1021/je049572f).

Assay: xn = mol fraction of the nth substance listed
Settings: 101.33 kPa, Liquid

CCc1ccccc1 [ethylbenzene] + CN1CCCC1=O
Settings	mass density [kg/m3]	viscosity [mPa·s]
303.15 K, x1 = 0.094	1006.25	1.415
303.15 K, x1 = 0.1901	989.43	1.301
303.15 K, x1 = 0.2859	972.61	1.188
303.15 K, x1 = 0.3839	955.98	1.081
303.15 K, x1 = 0.4839	939.38	0.975
303.15 K, x1 = 0.5835	923.22	0.884
303.15 K, x1 = 0.6854	906.91	0.796
303.15 K, x1 = 0.7888	890.73	0.722
303.15 K, x1 = 0.8937	874.71	0.66
303.15 K, x1 = 1	859.95	0.598
313.15 K, x1 = 0.094	997.35	1.216
313.15 K, x1 = 0.1901	980.53	1.124
313.15 K, x1 = 0.2859	963.71	1.033
313.15 K, x1 = 0.3839	947.11	0.94
313.15 K, x1 = 0.4839	930.52	0.846
313.15 K, x1 = 0.5835	914.35	0.772
313.15 K, x1 = 0.6854	898.04	0.705
313.15 K, x1 = 0.7888	881.86	0.643
313.15 K, x1 = 0.8937	865.85	0.588
313.15 K, x1 = 1	851.14	0.537
323.15 K, x1 = 0.094	988.46	1.057
323.15 K, x1 = 0.1901	971.63	0.982
323.15 K, x1 = 0.2859	954.81	0.904
323.15 K, x1 = 0.3839	938.2	0.829
323.15 K, x1 = 0.4839	921.64	0.75
323.15 K, x1 = 0.5835	905.4	0.688
323.15 K, x1 = 0.6854	889.1	0.629
323.15 K, x1 = 0.7888	873	0.576
323.15 K, x1 = 0.8937	856.9	0.525
323.15 K, x1 = 1	842.3	0.483
333.15 K, x1 = 0.094	979.51	0.932
333.15 K, x1 = 0.1901	962.67	0.868
333.15 K, x1 = 0.2859	945.85	0.801
333.15 K, x1 = 0.3839	929.24	0.735
333.15 K, x1 = 0.4839	912.7	0.671
333.15 K, x1 = 0.5835	896.46	0.618
333.15 K, x1 = 0.6854	880.17	0.565
333.15 K, x1 = 0.7888	864	0.52
333.15 K, x1 = 0.8937	847.93	0.474
333.15 K, x1 = 1	833.34	0.437
343.15 K, x1 = 0.094	970.56	0.833
343.15 K, x1 = 0.1901	953.71	0.774
343.15 K, x1 = 0.2859	936.87	0.714
343.15 K, x1 = 0.3839	920.25	0.658
343.15 K, x1 = 0.4839	903.71	0.603
343.15 K, x1 = 0.5835	887.45	0.559
343.15 K, x1 = 0.6854	871.13	0.514
343.15 K, x1 = 0.7888	854.97	0.472
343.15 K, x1 = 0.8937	838.91	0.43
343.15 K, x1 = 1	824.26	0.397
353.15 K, x1 = 0.094	961.56	0.746
353.15 K, x1 = 0.1901	944.7	0.695
353.15 K, x1 = 0.2859	927.86	0.643
353.15 K, x1 = 0.3839	911.2	0.596
353.15 K, x1 = 0.4839	894.64	0.547
353.15 K, x1 = 0.5835	878.35	0.505
353.15 K, x1 = 0.6854	862.01	0.468
353.15 K, x1 = 0.7888	845.86	0.43
353.15 K, x1 = 0.8937	829.76	0.391
353.15 K, x1 = 1	815.18	0.366
